Data as given in ChEMBL document CHEMBL3046040, “Synthesis, cytostatic and anti-viral activity evaluation of the novel acyclic nucleoside analogues containing a sterically constrained (Z)-4-amino-2-butenyl moiety” (Med Chem Res, 2011).
Calls of active or inactive are those of the source. The calls are words filed in the database; no cut-off is given here.

Assays:
[1] = test system: WI-38; experiment: Antiproliferative activity against Homo sapiens (human) WI38 cells by MTT assay; format: cell-based
[2] = test system: Human immunodeficiency virus 1; experiment: Antiviral activity against Human immunodeficiency virus 1 IIIB infected CEM cells assessed as inhibition of virus-induced giant cell formation after 4 days by microscopic analysis; format: functional, organism-based; conditions: CCRF-CEM, 96 h
[3] = test system: Influenza A virus; experiment: Antiviral activity against Unidentified Influenza A virus ([…]) infected MDCK cells assessed as inhibition of virus-induced cytopathic effect; format: functional, organism-based; conditions: Influenza A virus (H1N1)
[4] = test system: Reovirus sp.; experiment: Antiviral activity against Mammalian orthoreovirus 1 infected Vero cells assessed as inhibition of virus-induced cytopathic effect; format: functional, organism-based
[5] = test system: HeLa; experiment: Antiproliferative activity against Homo sapiens (human) HeLa cells by MTT assay; format: functional, cell-based
[6] = test system: MOLT-4; experiment: Cytostatic activity against Homo sapiens (human) Molt4/C8 cells after 72 hr by Coulter counting analysis; format: functional, cell-based; conditions: MOLT-4, 72 h
[7] = test system: MCF7; experiment: Antiproliferative activity against Homo sapiens (human) MCF7 cells by MTT assay; format: functional, cell-based
[8] = test system: MIA PaCa-2; experiment: Antiproliferative activity against Homo sapiens (human) MIAPaCa2 cells by MTT assay; format: functional, cell-based
[9] = test system: Influenza B virus; experiment: Antiviral activity against Influenza B virus infected MDCK cells assessed as inhibition of virus-induced cytopathic effect; format: functional, organism-based
[10] = test system: SW-620; experiment: Antiproliferative activity against Homo sapiens (human) SW620 cells by MTT assay; format: functional, cell-based; conditions: Homo sapiens, SW-620
[11] = test system: Human alphaherpesvirus 2; experiment: Antiviral activity against Human herpesvirus 2 strain G infected HEL cells assessed as inhibition of virus-induced cytopathic effect; format: functional, organism-based
[12] = test system: CCRF-CEM; experiment: Cytostatic activity against Homo sapiens (human) CEM cells after 72 hr by Coulter counting analysis; format: functional, cell-based
[13] = test system: Human immunodeficiency virus 2; experiment: Antiviral activity against Human immunodeficiency virus type 2 (ISOLATE ROD) infected CEM cells assessed as inhibition of virus-induced giant cell formation after 4 days by microscopic analysis; format: functional, organism-based; conditions: Human immunodeficiency virus 2, ISOLATE ROD, CCRF-CEM, 96 h
[14] = test system: Human alphaherpesvirus 1; experiment: Antiviral activity against Human herpesvirus 1 strain KOS infected in HEL cells assessed as inhibition of virus-induced cytopathic effect; format: functional, organism-based
[15] = test system: Coxsackievirus B4; experiment: Antiviral activity against Human coxsackievirus B4 infected Vero cells assessed as inhibition of virus-induced cytopathic effect; format: functional, organism-based
[16] = test system: HepG2; experiment: Antiproliferative activity against Homo sapiens (human) HepG2 cells by MTT assay; format: functional, cell-based
[17] = test system: L1210; experiment: Cytostatic activity against Mus musculus (mouse) L1210 cells after 48 hr by Coulter counting analysis; format: functional, cell-based; conditions: Mus musculus, L1210, 48 h
[18] = test system: Coxsackievirus B4; experiment: Antiviral activity against Human coxsackievirus B4 infected HeLa cells assessed as inhibition of virus-induced cytopathic effect; format: functional, organism-based
[19] = test system: Human respirovirus 3; experiment: Antiviral activity against Human parainfluenza virus 3 infected Vero cells assessed as inhibition of virus-induced cytopathic effect; format: functional, organism-based
[20] = test system: Influenza A virus H3N2; experiment: Antiviral activity against Influenza A virus H3N2 infected MDCK cells assessed as inhibition of virus-induced cytopathic effect; format: functional, organism-based
[21] = test system: Punta Toro virus; experiment: Antiviral activity against Punta Toro virus infected Vero cells assessed as inhibition of virus-induced cytopathic effect; format: functional, organism-based
[22] = test system: Respiratory syncytial virus; experiment: Antiviral activity against Respiratory syncytial virus infected HeLa cells assessed as inhibition of virus-induced cytopathic effect; format: functional, organism-based
[23] = test system: Sindbis virus; experiment: Antiviral activity against Sindbis virus infected Vero cells assessed as inhibition of virus-induced cytopathic effect; format: functional, organism-based
[24] = target: Human immunodeficiency virus type 1 reverse transcriptase (Human immunodeficiency virus 1) (UniProt Q72547); experiment: Inhibition of Human immunodeficiency virus 1 recombinant reverse transcriptase at 500 uM
[25] = test system: Vesicular stomatitis virus; experiment: Antiviral activity against Vesicular stomatitis virus infected HeLa cells assessed as inhibition of virus-induced cytopathic effect; format: functional, organism-based

SMILES	IC50 [1]	EC50 [2]	Activity [3]	Activity [4]	IC50 [5]	IC50 [6]	IC50 [7]	IC50 [8]	Activity [9]	IC50 [10]	Activity [11]	IC50 [12]	EC50 [13]	Activity [14]	Activity [15]	IC50 [16]	IC50 [17]	Activity [18]	Activity [19]	Activity [20]	further results
Cc1cn(C/C=C\CN)c(=O)[nH]c1=O	54.2 µM	29 µM	inactive	inactive	61.6 µM	44 µM	49.2 µM	93.3 µM	inactive	54.4 µM	inactive	51 µM	41 µM	inactive	inactive	> 100 µM	43 µM	inactive	inactive	inactive	Activity [21]: inactive; Activity [22]: inactive; Activity [23]: inactive; inhibition [24]: inactive; Activity [25]: inactive
NC/C=C\Cn1ccc(N)nc1=O	85.2 µM	96 µM	inactive	inactive	> 100 µM	> 500 µM	> 100 µM	> 100 µM	inactive	53.2 µM	inactive	> 500 µM	78 µM	inactive	inactive	> 100 µM	> 500 µM	inactive	inactive	inactive	Activity [21]: inactive; Activity [22]: inactive; Activity [23]: inactive; inhibition [24]: inactive; Activity [25]: inactive
Cc1cn(C/C=C\CN)c(=O)nc1N	63 µM	36 µM	inactive	inactive	> 100 µM	42 µM	67.5 µM	> 100 µM	inactive	69.2 µM	inactive	46 µM	38 µM	inactive	inactive	> 100 µM	45 µM	inactive	inactive	inactive	Activity [21]: inactive; Activity [22]: inactive; Activity [23]: inactive; inhibition [24]: inactive; Activity [25]: inactive
